{
  "source": "paper PMC6920949",
  "about": "“Muscle to Brain Partitioning as Measure of Transporter-Mediated Efflux at the Rat Blood–Brain Barrier and Its Implementation into Compound Optimization in Drug Discovery” (Pharmaceutics, 2019)",
  "key": {"[1]": {"conditions": "rat, in vivo", "experimental": "(§1) Animal experiments were performed in male rats of different strains (Han Wistar, Sprague Dawley, Lister Hooded, Long-Evans, supplied by commercial breeders, typically Charles River, Sulzfeld, Germany or Janvier Labs, Saint-Berthevin Cedex, France). Only two studies were done in female animals. Typically three animals were used per experiment. […] Compounds were dosed orally, intravenously, subcutaneously, or intraperitoneally. For tissue sampling animals were anaesthetized with Ketamin/Inactin. After dissection of the cisterna magna, approximately 50 µL CSF was collected via a 0.4-mm cannula. Blood was collected from the retroorbital plexus into K3EDTA coated vials (Sarstedt, Nümbrecht, Germany) and plasma was collected by centrifugation for 5 min at approximately 5000 rpm. Animals were exsanguinated via the vena cava. The femoral muscle was prepared. A small piece (approximately 0.2–0.5 g) was excised, rinsed in cold physiological NaCl, and the remaining fat and superficial vessels were removed. For brain isolation, skin and muscle of head and neck were removed. The cranium was opened with a bone trimmer by one central and two lateral incisions. […]\n(§2) Prior to bioanalysis plasma samples and dialysates were spiked with internal standard solution and diluted with acetonitrile for protein precipitation. […] Quantification was performed using external calibration."}, "[2]": {"design": "method as in PMID 21934030", "conditions": "rat, brain slice method; cited from earlier work"}, "[3]": {"test": "Kp,br/mu: brain to skeletal muscle partitioning, tissue distribution study in rats", "conditions": "rat, brain and skeletal (femoral) muscle", "experimental": "as §1, §2"}, "[4]": {"design": "method as in PMID 28880093", "conditions": "dog cerebrum, cerebellum, brain stem; cited from earlier work"}, "[5]": {"test": "Kp,uu,brain by brain homogenate method", "format": "in vivo", "conditions": "brain and plasma (unbound), rat, Table 4, read-out: Kp,uu,brain(hom) (This publication)", "text": "Under steady-state conditions, Kp,uu,brain defines the ratio between the unbound drug concentration in brain (Cu,brain), i.e., the interstitial fluid (ISF) and the unbound drug concentration in plasma(Cu,plasma) (Equation (1)). Kp,uu,brain = Cu,brain/Cu,plasma(1) Using microdialysis, the concentrations in brain ISF can be determined. […] Kp,uu,brain = Cu,brain/Cu,plasma = (Cbrain × fu,brain)/(Cplasma × fu,plasma) = Kp,brain × (fu,brain/fu,plasma)(2) where Cplasma and Cbrain are the plasma and brain concentration, respectively. Kp is the partition coefficient of total drug in brain and plasma:Kp,brain = Cbrain/Cplasma(3)\nAnimal experiments were performed in male rats of different strains (Han Wistar, Sprague Dawley, Lister Hooded, Long-Evans, supplied by commercial breeders, typically Charles River, Sulzfeld, Germany or Janvier Labs, Saint-Berthevin Cedex, France). Only two studies were done in female animals. Typically three animals were used per experiment. […] Compounds were dosed orally, intravenously, subcutaneously, or intraperitoneally. […]\nBinding of research compounds to plasma protein and tissue homogenates was determined using the equilibrium dialysis method as described previously [9, 15]. […] Unbound plasma concentration (fu,plasma) was calculated as:fu,plasma = (Cplasma − Cbuffer)/Cplasma,(7) where Cplasma and Cbuffer are the plasma and buffer concentration, respectively."}, "[6]": {"conditions": "compounds without blood-brain barrier efflux; cited from earlier work"}},
  "data": [
    {"molecule": "NC(=O)N1c2ccccc2C=Cc2ccccc21", "note": "[Carbamazapine]", "values": [
      {"measurement": "Kp,br/mu (This publication)", "setting": "[1]", "result": 1.44},
      {"measurement": "Kp,uu,brain (Literature)", "setting": "[2]", "result": 0.771}
    ]},
    {"molecule": "C=C[C@H]1C[N@@]2CC[C@H]1C[C@@H]2[C@@H](O)c1ccnc2ccc(OC)cc12", "note": "[Quinidine]", "values": [
      {"measurement": "Kp", "setting": "[3]", "result": 0.056},
      {"measurement": "effect of up to 5-fold P-gp and BCRP expression differences between brain regions on Kp,brain", "setting": "[4]", "result": "did not affect"},
      {"measurement": "Kp uu", "setting": "[5]", "result": 0.0276}
    ]},
    {"molecule": "Cc1nnc2n1-c1sc(CCC(=O)N3CCOCC3)cc1C(c1ccccc1Cl)=NC2", "note": "[apafant]", "values": [
      {"measurement": "effect of up to 5-fold P-gp and BCRP expression differences between brain regions on Kp,brain", "setting": "[4]", "result": "did not affect"}
    ]},
    {"molecule": "Cc1ncc2n1-c1ccc(Cl)cc1C(c1ccccc1F)=NC2", "note": "[midazolam]", "values": [
      {"measurement": "distribution into brain and skeletal muscle", "setting": "[6]", "result": "very similar distributions into brain and skeletal muscle"}
    ]}
  ]
}
